Test results published in publication PMC10940802 (Computational and Structural Biotechnology Journal, 2024).

What was measured:
Experiment in all cases: UPLC glycosylation assay, […] nm
Format in all cases: biochemical, Periploca forrestii
Conditions in all cases: UDP-glucose as sugar donor; 10 mM PBS pH 8.0, 37 °C
[1] = system: PfUGT74B4
[2] = system: PfUGT92A8
[3] = system: PfUGT74E7
[4] = system: PfUGT75C6

Km [1] [µM] | Km [2] [µM] | Km [3] [µM] | Km [4] [µM] | SMILES
47.8 | 51.4 | – | – | O=C1CC(O)(c2ccc(O)cc2)Oc2cc(O)cc(O)c21 (centres unmarked) [2-Hydroxynaringenin]
2.23 | – | – | – | COc1ccc(-c2cc(=O)c3c(O)cc(O)cc3o2)cc1 [Acacetin]
50.2 | 148 | 5.97 | 29 | O=c1cc(-c2ccc(O)cc2)oc2cc(O)cc(O)c12 [Apigenin]
65.2 | 134 | – | – | O=c1cc(-c2ccc(O)c(O)c2)oc2cc(O)c([C@@H]3O[C@H](CO)[C@@H](O)[C@H](O)[C@H]3O)c(O)c12 [Isoorientin]
58.6 | 78.2 | – | – | O=c1cc(-c2ccc(O)cc2)oc2cc(O)c([C@@H]3O[C@H](CO)[C@@H](O)[C@H](O)[C@H]3O)c(O)c12 [Isovitexin]
58.3 | 252 | 7.75 | 28.4 | O=c1cc(-c2ccc(O)c(O)c2)oc2cc(O)cc(O)c12 [Luteolin]
– | 218 | – | – | O=c1cc(-c2ccc(O)c(O)c2)oc2c([C@@H]3O[C@H](CO)[C@@H](O)[C@H](O)[C@H]3O)c(O)cc(O)c12 [Orientin]
45.6 | 34.7 | – | – | O=C(CCc1ccc(O)cc1)c1c(O)cc(O)cc1O [Phloretin]
307 | 94.2 | – | – | O=c1cc(-c2ccc(O)cc2)oc2c([C@@H]3O[C@H](CO)[C@@H](O)[C@H](O)[C@H]3O)c(O)cc(O)c12 [Vitexin]
